Source: ChEMBL document CHEMBL5550154, “Novel biaryloxazolidinone derivatives with broad-spectrum antibacterial activity, favorable drug-like profiles and in vivo efficacy against linezolid-resistant Staphylococcusaureus” (Eur J Med Chem, 2024)
Converted amounts (≈) assume the structure as drawn.

Tests used:
[1] = Microsomal stability in dog liver microsomes assessed as elimination half life pretreated with compound upto 60 mins followed by NADPH addition and measured after 60 mins by LC/MS analysis; type: ADME, Canis lupus familiaris, Microsome; conditions: time < 120 min; for half-life: liver microsomes, read-out: beta t1/2
[2] = Microsomal stability in human liver microsomes assessed as parent compound remaining pretreated with compound upto 60 mins followed by NADPH addition and measured after 60 mins by LC/MS analysis; type: ADME, Microsome; conditions: time < 120 min; for remaining at 2 h: liver microsomes, read-out: Stability
[3] = Microsomal stability in rat liver microsomes assessed as elimination half life pretreated with compound upto 60 mins followed by NADPH addition and measured after 60 mins by LC/MS analysis; type: ADME, Microsome; conditions: for half-life: liver microsomes, read-out: beta t1/2
[4] = Elimination half life in Sprague-Dawley rat at 1 mg/kg, iv measured upto 24 hrs by LC-MS analysis; type: ADME, organism-based; conditions: in vivo, read-out: beta t1/2 (converted)
[5] = Stability in mouse plasma assessed as parent compound remaining at 37 degreeC measured upto 60 mins by HPLC analysis; type: ADME, cell-free; conditions: read-out: Stability
[6] = Microsomal stability in dog liver microsomes assessed as parent compound remaining pretreated with compound upto 60 mins followed by NADPH addition and measured after 60 mins by LC/MS analysis; type: ADME, Canis lupus familiaris, Microsome; conditions: time < 120 min, read-out: Stability
Staphylococcus aureus [7] = assay: Antibacterial activity against Linezolid-resistant Staphylococcus aureus infected in systemic infection SPF-kunming mouse model assessed as survival rate at 2.5 mg/kg, IG measured every day for 7 days; type: functional; conditions: po, 168 h, time 7 day
[8] = Stability in dog plasma assessed as parent compound remaining at 37 degreeC measured upto 60 mins by HPLC analysis; type: ADME, cell-free, Canis lupus familiaris; conditions: read-out: Stability
[9] = Stability in rat plasma assessed as parent compound remaining at 25 degreeC measured upto 60 mins by HPLC analysis; type: ADME, cell-free; conditions: for remaining at 1 h: read-out: Stability
[10] = Stability in dog plasma assessed as parent compound remaining at 25 degreeC measured upto 60 mins by HPLC analysis; type: ADME, cell-free, Canis lupus familiaris; conditions: read-out: Stability
[11] = biological target: T1, Amine oxidase [flavin-containing] A (Homo sapiens, UniProt P21397); assay: Inhibition of MAO-A (unknown origin) preincubated with compound for 15 mins followed by substrate addition and measured after 60 mins by luminescence based microplate reader analysis; type: toxicity
T1 sequence (P21397 whole entry): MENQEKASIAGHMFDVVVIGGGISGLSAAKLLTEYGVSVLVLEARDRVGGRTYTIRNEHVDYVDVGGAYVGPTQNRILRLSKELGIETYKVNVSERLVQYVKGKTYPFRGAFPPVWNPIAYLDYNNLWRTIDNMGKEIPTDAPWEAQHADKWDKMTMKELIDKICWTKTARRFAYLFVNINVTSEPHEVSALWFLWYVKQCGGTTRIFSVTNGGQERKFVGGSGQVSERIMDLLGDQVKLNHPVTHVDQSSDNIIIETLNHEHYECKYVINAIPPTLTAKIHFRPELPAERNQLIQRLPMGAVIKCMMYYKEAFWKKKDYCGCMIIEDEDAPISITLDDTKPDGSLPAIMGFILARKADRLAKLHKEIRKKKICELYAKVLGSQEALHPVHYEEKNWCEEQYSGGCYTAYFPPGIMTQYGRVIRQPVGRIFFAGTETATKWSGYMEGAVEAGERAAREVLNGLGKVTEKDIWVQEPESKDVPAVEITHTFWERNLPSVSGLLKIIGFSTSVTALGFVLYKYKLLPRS

[12] = Microsomal stability in mouse liver microsomes assessed as elimination half life pretreated with compound upto 60 mins followed by NADPH addition and measured after 60 mins by LC/MS analysis; type: ADME, Microsome; conditions: time < 120 min; for half-life: liver microsomes, read-out: beta t1/2
[13] = Stability in human plasma assessed as parent compound remaining at 37 degreeC measured upto 60 mins by HPLC analysis; type: ADME, cell-free; conditions: read-out: Stability
Cytochrome P450 3A4 = Cytochrome P450 3A4 (Homo sapiens, UniProt P08684); assay: Inhibition of CYP3A4 in human liver microsomes […] preincubated with compound for 5 mins followed by substrate addition and measured after 120 mins in presence of NADPH by LC-MS/MS analysis; type: ADME, Microsome
[14] = Apparent permeability across apical to basolateral side in human Caco-2 cells; type: ADME, cell-based
[15] = Stability in monkey plasma assessed as parent compound remaining at 37 degreeC measured upto 60 mins by HPLC analysis; type: ADME, cell-free, Macaca mulatta; conditions: rhesus monkey, read-out: Stability
[16] = Microsomal stability in monkey liver microsomes assessed as elimination half life pretreated with compound upto 60 mins followed by NADPH addition and measured after 60 mins by LC/MS analysis; type: ADME, Macaca mulatta, Microsome; conditions: rhesus monkey, time < 120 min, read-out: beta t1/2
[17] = Plasma protein binding in mouse incubated for 6 hrs by LC-MS/MS analysis; type: ADME, cell-free; conditions: read-out: PPB (converted)
[18] = Clearance in Sprague-Dawley rat at 1 mg/kg, iv measured upto 24 hrs by LC-MS analysis; type: ADME, organism-based; conditions: in vivo
Staphylococcus aureus [19] = assay: Antibacterial activity against Linezolid-resistant Staphylococcus aureus infected in systemic infection SPF-kunming mouse model assessed as survival rate at 40 mg/kg, IG measured every day for 7 days; type: functional; conditions: po, 168 h, time 7 day
[20] = Stability in human plasma assessed as parent compound remaining at 25 degreeC measured upto 60 mins by HPLC analysis; type: ADME, cell-free; conditions: for remaining at 1 h: read-out: Stability; for Stability: 1 h
Staphylococcus aureus [21] = assay: Antibacterial activity against methicillin-sensitive Staphylococcus aureus assessed as inhibition of bacterial growth incubated for 16 to 20 hrs by CLSI based broth liquid microdilution method; type: functional; conditions: time 16-20 hrs
[22] = Efflux ratio of apparent permeability across […] side in human Caco-2 cells; type: ADME, cell-based
Cytochrome P450 1A2 = biological target: T2, Cytochrome P450 1A2 (Homo sapiens, UniProt P05177); assay: Inhibition of CYP1A2 in human liver microsomes with alpha-naphthoflavone as reference inhibitor preincubated with compound for 5 mins followed by substrate addition and measured after 120 mins in presence of NADPH by LC-MS/MS analysis; type: ADME, Microsome
T2 sequence (P05177 whole entry): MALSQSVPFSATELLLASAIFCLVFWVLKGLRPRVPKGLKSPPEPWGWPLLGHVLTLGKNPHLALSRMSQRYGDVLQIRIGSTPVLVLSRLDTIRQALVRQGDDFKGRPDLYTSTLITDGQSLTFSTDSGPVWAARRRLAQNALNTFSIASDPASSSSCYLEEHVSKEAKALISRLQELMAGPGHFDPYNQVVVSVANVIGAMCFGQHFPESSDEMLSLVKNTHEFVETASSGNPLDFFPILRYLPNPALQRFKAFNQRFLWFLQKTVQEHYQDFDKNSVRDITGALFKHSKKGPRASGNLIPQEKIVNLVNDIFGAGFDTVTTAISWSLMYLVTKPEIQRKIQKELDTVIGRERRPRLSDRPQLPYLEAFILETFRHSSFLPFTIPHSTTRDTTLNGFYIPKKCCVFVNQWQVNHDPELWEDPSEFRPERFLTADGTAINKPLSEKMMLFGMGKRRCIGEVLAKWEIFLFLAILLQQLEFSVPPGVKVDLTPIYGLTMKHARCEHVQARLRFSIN

Staphylococcus aureus [23] = assay: Antibacterial activity against methicillin-sensitive Staphylococcus aureus assessed as inhibition of bacterial growth; type: functional
[24] = Stability in simulated gastric acid assessed as compound remaining at pH 1.3 measured immediately; type: ADME; conditions: read-out: Stability
[25] = Stability in simulated gastric acid assessed as compound remaining at pH 1.3 measured at 1 hr; type: ADME; conditions: read-out: Stability
[26] = Stability in simulated gastric acid assessed as compound remaining at pH 1.3 measured at 2 hrs; type: ADME; conditions: read-out: Stability

Sequence of Cytochrome P450 3A4 (P08684 whole entry): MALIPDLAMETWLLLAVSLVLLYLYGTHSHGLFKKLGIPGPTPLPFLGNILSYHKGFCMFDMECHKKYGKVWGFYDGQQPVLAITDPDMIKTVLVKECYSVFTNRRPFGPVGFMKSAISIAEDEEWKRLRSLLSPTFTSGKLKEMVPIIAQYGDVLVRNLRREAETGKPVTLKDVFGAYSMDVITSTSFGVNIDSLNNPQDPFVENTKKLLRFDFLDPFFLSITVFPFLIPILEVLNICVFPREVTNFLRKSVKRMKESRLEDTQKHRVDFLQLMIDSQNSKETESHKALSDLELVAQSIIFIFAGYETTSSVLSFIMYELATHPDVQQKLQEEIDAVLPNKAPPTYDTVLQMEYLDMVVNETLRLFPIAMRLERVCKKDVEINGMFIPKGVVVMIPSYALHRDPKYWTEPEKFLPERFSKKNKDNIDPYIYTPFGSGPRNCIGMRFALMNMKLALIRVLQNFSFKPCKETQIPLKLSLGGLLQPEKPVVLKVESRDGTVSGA

SMILES | half-life [1] | remaining at 2 h [2] | half-life [3] | half-life [4] | remaining at 1 h [5] | remaining at 2 h [6] | remaining at 1 h [8] | remaining at 1 h [9] | remaining at 1 h [10] | IC50 [11] | half-life [12] | remaining at 1 h [13] | IC50 (Cytochrome P450 3A4) | remaining at 1 h [15] | half-life [16] | fraction unbound at 6 h [17] | clearance [18] | remaining at 1 h [20] | MIC (Staphylococcus aureus [21]) | IC50 (Cytochrome P450 1A2) | further results
O=C1O[C@@H](CO)CN1c1ccc(-c2ccc(/C=N/N3CCOCC3)nc2)c(F)c1 | 1150 min | 66.2% | 612 min | 48 min | 98.3% | 96.8% | 115% | 116% | 107% | 5.64 µM | 730 min | 98.6% | > 30 µM | 103% | 467 min | 0.117 | 14 mL/min/kg | 102% | 0.06 µg/mL (≈ 0.15 µM) | > 30 µM | survival at 2.5 mg/kg (Staphylococcus aureus [7]): 0%; Papp A→B [14]: 36.7 ×10⁻⁶ cm/s; survival at 40 mg/kg (Staphylococcus aureus [19]): 100%; Ratio [22]: 0.61
CC(=O)NC[C@H]1CN(c2ccc(N3CCOCC3)c(F)c2)C(=O)O1 [LINEZOLID] | 2080 min | 102% | 626 min | 24.6 min | 105% | 97.8% | 110% | 99.2% | 99.1% | 20 µM | 636 min | 110% | > 30 µM | 105% | 3110 min | 0.721 | 24.7 mL/min/kg | 99.4% | – | > 30 µM | MIC (Staphylococcus aureus [23]): 1 µg/mL (≈ 2.96 µM)
O=C1O[C@@H](CO)CN1c1ccc(-c2ccc(/C=N/N3CCS(=O)(=O)CC3)nc2)c(F)c1 | – | 98.7% | 724 min | 43.2 min | 102% | 97% | 107% | 113% | 113% | – | 1950 min | 104% | > 30 µM | 103% | 581 min | 0.245 | 14.7 mL/min/kg | – | 0.125 µg/mL (≈ 0.279 µM) | > 30 µM | beta t1/2 ([1]; microsomes, 2 h): 4.119 days; Stability [20]: 126%
CC(C)N/N=C/c1ccc(-c2ccc(N3C[C@H](CO)OC3=O)cc2F)cn1 | 202 min | 85.8% | – | 58.8 min | 80.2% | 76.7% | 108% | 111% | 112% | – | – | 107% | 16.5 µM | 106% | 101 min | 0.048 | 10.3 mL/min/kg | 112% | 0.03 µg/mL (≈ 0.0806 µM) | > 30 µM | remaining at 0 h [24]: 100%; beta t1/2 ([3]; microsomes, 1 h): 112 min; remaining at 1 h [25]: 94.3%; remaining at 2 h [26]: 87.1%; beta t1/2 ([12]; microsomes, 2 h): 75.4 min
O=C1O[C@@H](CO)CN1c1ccc(-c2ccc(/C=N/N3CCCCC3)nc2)c(F)c1 | 107 min | – | 96.6 min | 73.8 min | 111% | 67.4% | 100% | – | 97.4% | – | 150 min | 118% | > 30 µM | 105% | 80.4 min | 0.013 | 11.6 mL/min/kg | – | 0.03 µg/mL (≈ 0.0753 µM) | > 30 µM | Stability ([2]; microsomes, 2 h): 71.7%; Stability ([9]; 1 h): 124%; Papp A→B [14]: 11.1 ×10⁻⁶ cm/s; Stability [20]: 149%; Ratio [22]: 1.5
